Each molecule was assayed against T1, bradykinin 1 receptor (B1R) of the rat (Rattus norvegicus, UniProt P97583) (assay: Functional investigation on the rat bradykinin 1 receptor (B1R), Ca2+ FLIPR assay in CHO K1 rB1R cells). Conditions: B1R antagonism rat; test substance 10 μM; Ca2+ FLIPR, CHO K1 rB1R cells.
T1 construct: expressed in transfected cells; host or cells: CHO K1 cells
T1 sequence (P97583 1-337): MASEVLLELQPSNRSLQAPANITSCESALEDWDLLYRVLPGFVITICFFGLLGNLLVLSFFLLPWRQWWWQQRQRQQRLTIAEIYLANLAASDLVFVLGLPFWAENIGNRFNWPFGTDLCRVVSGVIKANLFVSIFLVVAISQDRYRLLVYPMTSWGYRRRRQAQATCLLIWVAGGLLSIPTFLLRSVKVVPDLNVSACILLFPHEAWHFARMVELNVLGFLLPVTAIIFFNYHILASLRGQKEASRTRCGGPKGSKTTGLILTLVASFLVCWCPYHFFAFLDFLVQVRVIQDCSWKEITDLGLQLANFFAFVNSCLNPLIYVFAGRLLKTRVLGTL
Format: cell-based
In short: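 Fluo-4 Ca2+ readout, peak fluorescence. Stable CHO K1 transfectants; compound pre-incubated 10-20 min, then EC80 agonist—Lys-Des-Arg9-BK for hB1R, Des-Arg9-BK for rB1R. % inhibition vs maximal inhibition; IC50 from multiple concentrations, duplicate/triplicate, ≥2 independent runs.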
With `CN(C)C(CCc1ccccc1)C1CCC(CNC(=O)COC2CCN(S(=O)(=O)c3ccccc3)CC2)CC1` (stereo not shown) [Example 578] the “B1R Ant. r [10 μM] % Inhibition” value was 12%. `CN(C)C(CCc1ccccc1)C1CCC(CNC(=O)COCCN(C)S(=O)(=O)c2c(Cl)cccc2Cl)CC1` (stereo not shown) [Example 580] was tested, and the “B1R Ant. r [10 μM] % Inhibition” value was 44%. `COc1ccc(S(=O)(=O)N2CCCCC2COCC(=O)NCCC2CCC(C(c3cccc(F)c3)N(C)C)CC2)cc1OC` (stereo not shown) [Example 581] was tested, and the “B1R Ant. r [10 μM] % Inhibition” value was 8%. In the case of `CN(C)C(c1ccc(F)cc1)C1CCC(CNC(=O)COCCC2CCN(S(=O)(=O)c3ccccc3)CC2)CC1` (stereo not shown) [Example 583], the “B1R Ant. r [10 μM] % Inhibition” value is reported as 20%. `CN(C)C(c1ccc(Cl)cc1)C1CCC(CNC(=O)COCCC2CCN(S(=O)(=O)c3ccccc3)CC2)CC1` (stereo not shown) [Example 584] was tested, and the “B1R Ant. r [10 μM] % Inhibition” value was 41%. In the case of `CN(C)C(c1ccc(F)cc1)C1CCC(CCNC(=O)COCCN(C)S(=O)(=O)c2ccc(Cl)cc2Cl)CC1` (stereo not shown) [Example 586], the “B1R Ant. r [10 μM] % Inhibition” value is reported as 76%. For `Cc1cc(C)c(S(=O)(=O)N(C)CCOCC(=O)NCCC2CCC(C(c3cccc(F)c3)N(C)C)CC2)c(C)c1` (stereo not shown) [Example 587], the “B1R Ant. r [10 μM] % Inhibition” value was 16%.
